Assay results from BigSolDB 2.1.

SMILES: NS(=O)(=O)Cc1noc2ccccc12
- solubility (mole fraction) (in 1,4-dioxane, 288.15 K): 0.024
- solubility (mole fraction) (in 1,4-dioxane, 293.15 K): 0.0294
- solubility (mole fraction) (in 1,4-dioxane, 298.15 K): 0.0354
- solubility (mole fraction) (in 1,4-dioxane, 303.15 K): 0.0416
- solubility (mole fraction) (in 1,4-dioxane, 308.15 K): 0.0488
- solubility (mole fraction) (in 1,4-dioxane, 313.15 K): 0.0563
- solubility (mole fraction) (in 2-butanone, 273.15 K): 0.0132
- solubility (mole fraction) (in 2-butanone, 278.15 K): 0.0154
- solubility (mole fraction) (in 2-butanone, 283.15 K): 0.0179
- solubility (mole fraction) (in 2-butanone, 288.15 K): 0.0209
- solubility (mole fraction) (in 2-butanone, 293.15 K): 0.0244
- solubility (mole fraction) (in 2-butanone, 298.15 K): 0.0282
- solubility (mole fraction) (in 2-butanone, 303.15 K): 0.0319
- solubility (mole fraction) (in 2-butanone, 308.15 K): 0.0358
- solubility (mole fraction) (in 2-butanone, 313.15 K): 0.0399
- solubility (mole fraction) (in DMF, 273.15 K): 0.0192
- solubility (mole fraction) (in DMF, 278.15 K): 0.0278
- solubility (mole fraction) (in DMF, 283.15 K): 0.0374
- solubility (mole fraction) (in DMF, 288.15 K): 0.0469
- solubility (mole fraction) (in DMF, 293.15 K): 0.0575
- solubility (mole fraction) (in DMF, 298.15 K): 0.0687
- solubility (mole fraction) (in DMF, 303.15 K): 0.0812
- solubility (mole fraction) (in DMF, 308.15 K): 0.0946
- solubility (mole fraction) (in DMF, 313.15 K): 0.108
- solubility (mole fraction) (in acetonitrile, 273.15 K): 0.00562
- solubility (mole fraction) (in acetonitrile, 278.15 K): 0.00691
- solubility (mole fraction) (in acetonitrile, 283.15 K): 0.00821
- solubility (mole fraction) (in acetonitrile, 288.15 K): 0.00982
- solubility (mole fraction) (in acetonitrile, 293.15 K): 0.0114
- solubility (mole fraction) (in acetonitrile, 298.15 K): 0.0131
- solubility (mole fraction) (in acetonitrile, 303.15 K): 0.0149
- solubility (mole fraction) (in acetonitrile, 308.15 K): 0.0171
- solubility (mole fraction) (in acetonitrile, 313.15 K): 0.0191
- solubility (mole fraction) (in cyclohexanone, 273.15 K): 0.00739
- solubility (mole fraction) (in cyclohexanone, 278.15 K): 0.00898
- solubility (mole fraction) (in cyclohexanone, 283.15 K): 0.0109
- solubility (mole fraction) (in cyclohexanone, 288.15 K): 0.0129
- solubility (mole fraction) (in cyclohexanone, 293.15 K): 0.0155
- solubility (mole fraction) (in cyclohexanone, 298.15 K): 0.0184
- solubility (mole fraction) (in cyclohexanone, 303.15 K): 0.0218
- solubility (mole fraction) (in cyclohexanone, 308.15 K): 0.0262
- solubility (mole fraction) (in cyclohexanone, 313.15 K): 0.0307
- solubility (mole fraction) (in ethanol, 273.15 K): 0.00112
- solubility (mole fraction) (in ethanol, 278.15 K): 0.00135
- solubility (mole fraction) (in ethanol, 283.15 K): 0.00159
- solubility (mole fraction) (in ethanol, 288.15 K): 0.00188
- solubility (mole fraction) (in ethanol, 293.15 K): 0.00221
- solubility (mole fraction) (in ethanol, 298.15 K): 0.00255
- solubility (mole fraction) (in ethanol, 303.15 K): 0.0029
- solubility (mole fraction) (in ethanol, 308.15 K): 0.0033
- solubility (mole fraction) (in ethanol, 313.15 K): 0.00373
- solubility (mole fraction) (in ethyl acetate, 273.15 K): 0.00498
- solubility (mole fraction) (in ethyl acetate, 278.15 K): 0.00558
- solubility (mole fraction) (in ethyl acetate, 283.15 K): 0.00625
- solubility (mole fraction) (in ethyl acetate, 288.15 K): 0.00704
- solubility (mole fraction) (in ethyl acetate, 293.15 K): 0.00793
- solubility (mole fraction) (in ethyl acetate, 298.15 K): 0.00882
- solubility (mole fraction) (in ethyl acetate, 303.15 K): 0.0098
- solubility (mole fraction) (in ethyl acetate, 308.15 K): 0.0108
- solubility (mole fraction) (in ethyl acetate, 313.15 K): 0.0118
- solubility (mole fraction) (in isopropanol, 273.15 K): 0.000617
- solubility (mole fraction) (in isopropanol, 278.15 K): 0.000791
- solubility (mole fraction) (in isopropanol, 283.15 K): 0.000996
- solubility (mole fraction) (in isopropanol, 288.15 K): 0.00122
- solubility (mole fraction) (in isopropanol, 293.15 K): 0.00146
- solubility (mole fraction) (in isopropanol, 298.15 K): 0.00173
- solubility (mole fraction) (in isopropanol, 303.15 K): 0.00207
- solubility (mole fraction) (in isopropanol, 308.15 K): 0.00241
- solubility (mole fraction) (in isopropanol, 313.15 K): 0.00274
- solubility (mole fraction) (in methanol, 273.15 K): 0.00253
- solubility (mole fraction) (in methanol, 278.15 K): 0.00274
- solubility (mole fraction) (in methanol, 283.15 K): 0.00298
- solubility (mole fraction) (in methanol, 288.15 K): 0.00326
- solubility (mole fraction) (in methanol, 293.15 K): 0.00353
- solubility (mole fraction) (in methanol, 298.15 K): 0.00387
- solubility (mole fraction) (in methanol, 303.15 K): 0.00421
- solubility (mole fraction) (in methanol, 308.15 K): 0.0046
- solubility (mole fraction) (in methanol, 313.15 K): 0.005
- solubility (mole fraction) (in n-butanol, 273.15 K): 0.00017
- solubility (mole fraction) (in n-butanol, 278.15 K): 0.00026
- solubility (mole fraction) (in n-butanol, 283.15 K): 0.000383
- solubility (mole fraction) (in n-butanol, 288.15 K): 0.000528
- solubility (mole fraction) (in n-butanol, 293.15 K): 0.000721
- solubility (mole fraction) (in n-butanol, 298.15 K): 0.00095
- solubility (mole fraction) (in n-butanol, 303.15 K): 0.00122
- solubility (mole fraction) (in n-butanol, 308.15 K): 0.00148
- solubility (mole fraction) (in n-butanol, 313.15 K): 0.00178
- solubility (mole fraction) (in n-propanol, 273.15 K): 0.00041
- solubility (mole fraction) (in n-propanol, 278.15 K): 0.000546
- solubility (mole fraction) (in n-propanol, 283.15 K): 0.000697
- solubility (mole fraction) (in n-propanol, 288.15 K): 0.000862
- solubility (mole fraction) (in n-propanol, 293.15 K): 0.00105
- solubility (mole fraction) (in n-propanol, 298.15 K): 0.00126
- solubility (mole fraction) (in n-propanol, 303.15 K): 0.00149
- solubility (mole fraction) (in n-propanol, 308.15 K): 0.00175
- solubility (mole fraction) (in n-propanol, 313.15 K): 0.002
- solubility (mole fraction) (in toluene, 273.15 K): 3.56e-05
- solubility (mole fraction) (in toluene, 278.15 K): 5.05e-05
- solubility (mole fraction) (in toluene, 283.15 K): 6.73e-05
- solubility (mole fraction) (in toluene, 288.15 K): 8.69e-05
- solubility (mole fraction) (in toluene, 293.15 K): 0.000106
- solubility (mole fraction) (in toluene, 298.15 K): 0.000131
- solubility (mole fraction) (in toluene, 303.15 K): 0.00016
- solubility (mole fraction) (in toluene, 308.15 K): 0.000193
- solubility (mole fraction) (in toluene, 313.15 K): 0.00023
